Assay results published in patent publication US9861616B2, “Methods for treating respiratory diseases and formulations therefor” (priority 2013, dated 2018).
≈ marks a conversion by molar mass, not a printed value. Like-named read-outs stand apart in the source and are kept apart here.

Assays:
P. aeruginosa PAO1 = assay: MIC by microdilution with PaβN or EGTA, wild-type strain; type: cell-based
Experimental: (§1) MICs of 36 clinical and laboratory strains of PA with known efflux phenotype are measured by microdilution in cation-adjusted Muller-Hinton broth (CA-MHB) or in RPMI medium (commonly used in eukaryotic cell culture). Phe-Arg-β-naphthylamide (PaβN, 50 mg/L) and EGTA 5 mM are used to inhibit efflux pumps and alter OM integrity, respectively. P. aeruginosa strain ATCC PAO1 is used as reference. PA12 is a clinical strain overexpressing the 4 main efflux systems (MexAB, MexCD, MexEF, MexXY), PA403 is a laboratory strain deleted in the genes coding for the 4 efflux systems. A series of reference strains or of clinical isolates for which the expression of genes coding for efflux pumps is known is also used for MICs determinations. MICs are measured by microdilution in MH broth or in RPMI medium (used for eukaryotic cells culture) supplemented with 10% of fetal calf serum, or in MH broth supplemented by increasing amounts of serum. EGTA (5 mM) was used as a chelating agent (disrupting outer membrane integrity) and PaβN (50 mg/L) as an unspecific efflux inhibitor.

P. aeruginosa PA12 = assay: MIC by microdilution with PaβN or EGTA, clinical isolate overexpressing efflux pumps; type: cell-based
Experimental: as §1

TNFα release = assay: LPS-induced TNFα release in PMA-differentiated U937 cells (ELISA); type: cell-based, human
Experimental: Effects of macrolides on lipopolysaccharide (LPS)-induced TNFα release in PMA-differentiated U937 cells. […] LPS-induced TNFα release was evaluated by ELISA. Values represent means of three experiments±SEM. ^##p<0.01 (vs. non-treatment control), *p<0.05, **p<0.01 (vs. treatment with LPS only).
(§2) The human monocytic cell line U937 was obtained from the American Type Culture Collection (ATCC, Rockville, Md.). PBMCs from COPD patients were obtained from Brompton hospital and separated by AccuSPIN (Sigma-Aldrich). Cells were cultured in complete growth medium (RPMI 1640) (Sigma-Aldrich) supplemented with 10% fetal bovine serum (FBS) and 1% L-glutamine at 37° C. in a humidified atmosphere with 5% CO2. U937 cells were differentiated into adherent macrophage-like morphology by exposure to PMA (50 ng/mL) for 48 hrs in complete growth medium. Cell viability was assessed microscopically by trypan blue staining. Cell toxicity was determined by MTT assay as needed. This study was approved by the ethics committee of the Royal Brompton Hospitals, and all subjects gave written informed consent.
(§3) TNFα and IL-8 concentrations in the supernatant of cell cultures were determined by sandwich ELISA according to the manufacturer's instructions (R&D Systems Europe, Abingdon, UK).
(§4) The results were expressed as the mean±SEM. Comparisons of data in two groups were performed using the Student's t test or the Wilcoxon signed rank test. Multiple comparisons were made by one-way ANOVA with post hoc test (Dunnett's) as appropriate. The difference was considered significant at p<0.05. IC50 values (50% inhibitory concentration) for macrolides for production of cytokines or MMP9 were calculated using Prism 4.0 (GraphPad Software Inc., San Diego, Calif.).

IL-8 (CXCL8) release = assay: LPS-induced IL-8 (CXCL8) release in PMA-differentiated U937 cells (ELISA); type: cell-based, human
Experimental: Effects of macrolides on lipopolysaccharide (LPS)-induced CXCL8 release in PMA-differentiated U937 cells. […] LPS-induced CXCL8 release was evaluated by ELISA. Values represent means of three experiments±SEM. ^##p<0.01 (vs. non-treatment control), *p<0.05, **p<0.01 (vs. treatment with LPS only).
as §2, §3, §4

P. aeruginosa PA403 = assay: MIC by microdilution with PaβN or EGTA, efflux-deleted laboratory strain; type: cell-based
Experimental: as §1, with “The compounds described herein are poor substrates of efflux pumps expressed in P. aeruginosa (PA). MICs of” for “MICs of”

Question: For `CC[C@H]1OC(=O)[C@H](C)[C@@H](O[C@H]2C[C@@](C)(OC)[C@@H](O)[C@H](C)O2)[C@H](C)[C@@H](O[C@@H]2O[C@H](C)C[C@H](N(C)C)[C@H]2O)[C@](C)(O)C[C@@H](C)CN(C)[C@H](C)[C@@H](O)[C@]1(C)O` [AZM, azithromycin], which MIC (P. aeruginosa PAO1; Pseudomonas aeruginosa, PAO1, PAO1, CA-MHB, EGTA 5 mM, read-out: MIC) is on record?
Answer: Its MIC is 8 µg/mL (≈ 10.7 µM).

Question: What about the MIC (P. aeruginosa PAO1; Pseudomonas aeruginosa, PAO1, PAO1, CA-MHB, PaβN 50 mg/L, read-out: MIC) of the same molecule?
Answer: The MIC was 4 µg/mL (≈ 5.34 µM).

Question: What about the MIC (P. aeruginosa PAO1; Pseudomonas aeruginosa, PAO1, PAO1, CA-MHB, control conditions (CT)) of the same molecule?
Answer: Its MIC is 128 µg/mL (≈ 171 µM).

Question: And the MIC (P. aeruginosa PAO1; Pseudomonas aeruginosa, PAO1, PAO1, RPMI, EGTA 5 mM, read-out: MIC)?
Answer: Its MIC is 0.25 µg/mL (≈ 0.334 µM).

Question: And the MIC (P. aeruginosa PAO1; Pseudomonas aeruginosa, PAO1, PAO1, RPMI, PaβN 50 mg/L, read-out: MIC)?
Answer: The MIC was 4 µg/mL (≈ 5.34 µM).

Question: And the MIC (P. aeruginosa PAO1; Pseudomonas aeruginosa, PAO1, PAO1, RPMI, control conditions (CT), read-out: MIC)?
Answer: Its MIC is 2 µg/mL (≈ 2.67 µM).

Question: What about the MIC (P. aeruginosa PA12; Pseudomonas aeruginosa, PA12, PA12, CA-MHB, EGTA 5 mM) of the same molecule?
Answer: The MIC was 256 µg/mL (≈ 342 µM).

Question: And the MIC (P. aeruginosa PA12; Pseudomonas aeruginosa, PA12, PA12, CA-MHB, PaβN 50 mg/L)?
Answer: The MIC was 2 µg/mL (≈ 2.67 µM).

Question: And the MIC (P. aeruginosa PA12; Pseudomonas aeruginosa, PA12, PA12, CA-MHB, control conditions (CT))?
Answer: Its MIC is 256 µg/mL (≈ 342 µM).

Question: And the MIC (P. aeruginosa PA12; Pseudomonas aeruginosa, PA12, PA12, RPMI, EGTA 5 mM)?
Answer: The MIC was 0.5 µg/mL (≈ 0.668 µM).

Question: And the MIC (P. aeruginosa PA12; Pseudomonas aeruginosa, PA12, PA12, RPMI, PaβN 50 mg/L)?
Answer: Its MIC is 2 µg/mL (≈ 2.67 µM).

Question: And the MIC (P. aeruginosa PA12; Pseudomonas aeruginosa, PA12, PA12, RPMI, control conditions (CT))?
Answer: The MIC was 2 µg/mL (≈ 2.67 µM).

Question: What about the “effect on TNFα production” value (TNFα release; 33 to 333 μM (FIG. 3)) of the same molecule?
Answer: The value was “did not inhibit”.

Question: What about the IC50 (TNFα release; Homo sapiens, U-937, U937 cells, at 333 μM, read-out: IC50, LPS-induced TNFα release: NE at 333 μM) of the same molecule?
Answer: The IC50 was greater than 333 µM.

Question: And the “effect on IL-8 production” value (IL-8 (CXCL8) release; 33 to 333 μM (FIG. 4))?
Answer: Its value is “did not inhibit”.

Question: And the IC50 (IL-8 (CXCL8) release; Homo sapiens, U-937, U937 cells, at 333 μM, read-out: IC50, LPS-induced IL-8 release: NE at 333 μM)?
Answer: The IC50 was greater than 333 µM.

Question: What does the source list for `CC[C@H]1OC(=O)[C@@](C)(F)C(=O)[C@H](C)[C@@H](O[C@@H]2O[C@H](C)C[C@H](N(C)C)[C@H]2O)[C@](C)(OC)C[C@@H](C)C(=O)[C@H](C)[C@H]2N(CCCCn3cc(-c4cccc(N)c4)nn3)C(=O)O[C@]12C` [CEM-101, solithromycin]?
Answer: MIC (P. aeruginosa PAO1; PAO1, CA-MHB, EGTA 5 mM): 8 µg/mL (≈ 9.47 µM); MIC (P. aeruginosa PAO1; PAO1, CA-MHB, PaβN 50 mg/L): 8 µg/mL (≈ 9.47 µM); MIC (P. aeruginosa PAO1; PAO1, CA-MHB, control conditions (CT)): 32 µg/mL (≈ 37.9 µM); MIC (P. aeruginosa PAO1; PAO1, RPMI, EGTA 5 mM): 1 µg/mL (≈ 1.18 µM); MIC (P. aeruginosa PAO1; PAO1, RPMI, PaβN 50 mg/L): 2 µg/mL (≈ 2.37 µM); MIC (P. aeruginosa PAO1; PAO1, RPMI, control conditions (CT)): 2 µg/mL (≈ 2.37 µM); MIC (P. aeruginosa PA12; PA12, CA-MHB, EGTA 5 mM): 16 µg/mL (≈ 18.9 µM); MIC (P. aeruginosa PA12; PA12, CA-MHB, PaβN 50 mg/L): 4 µg/mL (≈ 4.73 µM); MIC (P. aeruginosa PA12; PA12, CA-MHB, control conditions (CT)): 32 µg/mL (≈ 37.9 µM); MIC (P. aeruginosa PA12; PA12, RPMI, EGTA 5 mM): 1 µg/mL (≈ 1.18 µM); MIC (P. aeruginosa PA12; PA12, RPMI, PaβN 50 mg/L): 4 µg/mL (≈ 4.73 µM); MIC (P. aeruginosa PA12; PA12, RPMI, control conditions (CT)): 4 µg/mL (≈ 4.73 µM); MIC (P. aeruginosa PA403; P403, CA-MHB, EGTA 5 mM): 1 mg/L (≈ 1.18 µM); MIC (P. aeruginosa PA403; P403, CA-MHB, control conditions (CT)): 4 mg/L (≈ 4.73 µM); MIC (P. aeruginosa PA403; P403, RPMI, EGTA 5 mM): 0.25 mg/L (≈ 0.296 µM); MIC (P. aeruginosa PA403; P403, RPMI, PaβN 50 mg/L): 2 mg/L (≈ 2.37 µM); MIC (P. aeruginosa PA403; P403, RPMI, control conditions (CT)): 1 mg/L (≈ 1.18 µM); IC50 (TNFα release; PMA-differentiated U937 cells, read-out: IC50, LPS-induced TNFα release): 41.6 ± 1.9 µM; effect on TNFα production (TNFα release; at 100 μM): significantly inhibited; IC50 (IL-8 (CXCL8) release; PMA-differentiated U937 cells, read-out: IC50, LPS-induced IL-8 (CXCL8) release): 78.2 ± 9.5 µM; effect on CXCL8 production (IL-8 (CXCL8) release; at 100 μM): significantly inhibited
